We go through five compounds from US20050037923A1, “Herbicidal mixture based on 7-pyrazolybenzoxazoles” (BASF Aktiengesellschaft, priority 2001, published 2005).

Each structure is given as a SMILES string.

For one data set, the system named is BRAPL. Briefly: Greenhouse test, post-emergence herbicidal action. The format is in vivo, alexandergrass. The text has this: (§1) For the post-emergence treatment, the test plants were first grown to a height of 3 to 20 cm, depending on the plant habit, and only then treated. Here, the herbicidal compositions were suspended or emulsified in water as distribution medium and sprayed using finely distributing nozzles.
(§2) The respective components A and B and/or C were formulated as 10% by weight strength emulsion concentrate and introduced to the spray liquor with the amount of solvent system used for applying the active compound. In the examples, the solvent used was water.
(§3) The test period extended over 21 days. During this time, the plants were tended, and their response to the treatments with active compound was evaluated.
(§4) The evaluation for the damage caused by the chemical compositions was carried out using a scale from 0 to 100%, compared to the untreated control plants. Here, 0 means no damage and 100 means complete destruction of the plants.
(§5) In the examples below, the value E which is to be expected if the activity of the individual active compounds is just additive was calculated using the method of S. R. Colby (1967) “Calculating synergistic and antagonistic responses of herbicide combinations”, Weeds 15, p. 22 ff. E=X+Y—(X·Y/100) where • X=effect in percent using active compound A at an application rate a; • Y=effect in percent using active compound B at an application rate b; • E=expected effect (in %) of A+B at application rates a+b.
(§6) The plants used in the greenhouse experiments were of the following species: […]

In data set [1] the test system is ABUTH. Briefly: Greenhouse test, post-emergence herbicidal action. The class given is in vivo, velvet leaf. As to conditions: 21 days.
Excerpt: as §1, §2, §3, §4, §5, §6

A further data set deals with POLPE. Briefly: Greenhouse test, post-emergence herbicidal action. The class given is in vivo, ladysthumb.
Excerpt: as §1, §2, §3, §4, §5, §6

A further data set deals with MATIN. Briefly: Greenhouse test, post-emergence herbicidal action. The format is in vivo, false chamomille.
Excerpt: as §1, §2, §3, §4, §5, §6

Data set [2] concerns BIDPI. Briefly: Greenhouse test, post-emergence herbicidal action. The class given is in vivo, hairy beggarticks.
Excerpt: as §1, §2, §3, §4, §5, §6

In a further data set the test system is CHEAL. Briefly: Greenhouse test, pre-emergence herbicidal action. The class given is in vivo, lambsquarters.
Excerpt: (§7) For the pre-emergence treatment, the test plants were sown is pots 1-2 days later, i.e. prior to germination, the pots were sprayed with the finely distributed herbicidal compositions, which had been suspended in water.
as §2, §3, §4, §5, §6

The next data set has as its system POAAN. Briefly: Greenhouse test, post-emergence herbicidal action. The class given is in vivo, annual bluegrass.
Excerpt: as §1, §2, §3, §4, §5, §6

In the next data set the test system is COMBE. Briefly: Greenhouse test, post-emergence herbicidal action. The class given is in vivo, tropical spiderwort. As to conditions: 21 days.
Excerpt: as §1, §2, §3, §4, §5, §6

The test system of a further data set is SETFA. Briefly: Greenhouse test, post-emergence herbicidal action. The class given is in vivo, giant foxtail. The conditions noted are these: 21 days.
Excerpt: as §1, §2, §3, §4, §5, §6

The subject of data set [3] is ECHCG. Briefly: Greenhouse test, pre-emergence herbicidal action. The format is in vivo, barnyardgrass.
Excerpt: as §7, §2, §3, §4, §5, §6

The next data set has as its system THLAR. Briefly: Greenhouse test, pre-emergence herbicidal action. The format is in vivo, fanweed.
Excerpt: as §7, §2, §3, §4, §5, §6

The next data set concerns AVEFA. Briefly: Greenhouse test, post-emergence herbicidal action. The class given is in vivo, wild oat.
Excerpt: as §1, §2, §3, §4, §5, §6

The test system of a further data set is SORHA. Briefly: Greenhouse test, pre-emergence herbicidal action. The format is in vivo, johnsongrass.
Excerpt: as §7, §2, §3, §4, §5, §6

In data set [4] the test system is ECHCG. Briefly: Greenhouse test, post-emergence herbicidal action. The format is in vivo, barnyardgrass.
Excerpt: as §1, §2, §3, §4, §5, §6

The test system of the next data set is SETVI. Briefly: Greenhouse test, post-emergence herbicidal action. The class given is in vivo, green foxtail.
Excerpt: as §1, §2, §3, §4, §5, §6

Data set [5] relates to ABUTH. Briefly: Greenhouse test, pre-emergence herbicidal action. The class given is in vivo, velvet leaf.
Excerpt: as §7, §2, §3, §4, §5, §6

Data set [6] concerns BIDPI. Briefly: Greenhouse test, pre-emergence herbicidal action. The format is in vivo, hairy beggarticks.
Excerpt: as §7, §2, §3, §4, §5, §6

Another data set has as its system VERSS. Briefly: Greenhouse test, post-emergence herbicidal action. The class given is in vivo, speadwell.
Excerpt: as §1, §2, §3, §4, §5, §6

In another data set the test system is GALAP. Briefly: Greenhouse test, post-emergence herbicidal action. The format is in vivo, catchweed bedstraw. As to conditions: 21 days.
Excerpt: as §1, §2, §3, §4, §5, §6

The test system of the next data set is crop plants. Briefly: Safener action, pre-emergence, damage to crop plants. The class given is in vivo. As to conditions: 21 days.
Excerpt: as §7, §2, §4
As in the example above, test plants were grown, treated with the mixture according to the invention by the Pre-emergence method and, after a test period of 21 days, evaluated using a scale from 0 to 100% damage. The test plants used were crop plants.
A safener action is present if the damage to the crop plant caused by using a mixture according to the invention which comprises a safener C) is less than the damage caused when active compound A or active compounds A and B are used without safener.

Where [7] appears, read: application rate 1.95 g/ha, 21 days.
Where [8] appears, read: application rate 3.91 g/ha, 21 days.
Setting [9] is: application rate 62.5 g/ha (Example 23).
[10] abbreviates: application rate 0.98 g/ha (Example 24).
Where [11] appears, read: application rate 1.95 g/ha (Example 24).
The mark [12] stands for this setting: application rate 1.95 g/ha (Example 28).
Setting [13] is: application rate 3.91 g/ha (Example 28).

Turning to `CCc1nc2c(Cl)cc(F)c(-c3nn(C)c(OC(F)F)c3Cl)c2o1` [I.9], the “Herbicidal action against BRAPL, Found” value was determined as 65% in the data set with BRAPL (application rate 3.91 g/ha (Example 17)) and 85% in the data set on BRAPL (application rate 7.81 g/ha (Example 17)). Further, the “Herbicidal action against ABUTH, Found” value in the data set with ABUTH [1] (application rate 0.49 g/ha) came out at 0%; in the data set on ABUTH [1] (application rate 0.98 g/ha) it was 70%. Also, the “Herbicidal action against POLPE, Found” value is 5% in the data set with POLPE (application rate 0.49 g/ha, 21 days); 10% with POLPE (application rate 0.98 g/ha, 21 days); 50% with POLPE (setting [7]). The “Herbicidal action against MATIN, Found” value with MATIN (application rate 1.95 g/ha) and in the data set with MATIN (application rate 3.91 g/ha) was 20% in each case. In addition, the “Herbicidal action against BIDPI, Found” value in the data set on BIDPI [2] (setting [7]) worked out at 0%; in the data set with BIDPI [2] (setting [8]) it was 40%. The “Herbicidal action against CHEAL, Found” value in the data set on CHEAL (application rate 7.81 g/ha) and in the data set with CHEAL (application rate 15.63 g/ha) was 75% in each case. Further, the “Herbicidal action against POAAN, Found” value in the data set with POAAN (application rate 1.95 g/ha) and in the data set with POAAN (application rate 3.91 g/ha) was 10% throughout. In addition, the “Herbicidal action against COMBE, Found” value in the data set on COMBE (application rate 0.98 g/ha) and in the data set with COMBE (application rate 1.95 g/ha) was 10% each time. Besides, the “Herbicidal action against SETFA, Found” value with SETFA (application rate 1.95 g/ha) is listed as 45%. The “Herbicidal action against ECHCG, Found” value was found to be 10% in the data set on ECHCG [3] (application rate 7.81 g/ha) and 35% in the data set on ECHCG [3] (application rate 15.63 g/ha). Besides, the “Herbicidal action against THLAR, Found” value in the data set with THLAR (application rate 15.63 g/ha) and in the data set with THLAR (application rate 31.25 g/ha) was 80% in each case. The figures for the “Herbicidal action against AVEFA, Found” value with AVEFA (application rate 1.95 g/ha (Example 15)), in the data set with AVEFA (setting [7]) and with AVEFA (application rate 3.91 g/ha (Example 15)) were 10%, 10% and 20%, respectively.

Take `CCC(CC)Nc1c([N+](=O)[O-])cc(C)c(C)c1[N+](=O)[O-]` [pendimethalin]: the “Herbicidal action against THLAR, Found” value in the data set with THLAR (application rate 250 g/ha) stood at 40%.

With `COC[C@H](C)N(C(=O)CCl)c1c(C)csc1C` [dimethenamide-P], the “Herbicidal action against SORHA, Found” value in the data set on SORHA (application rate 62.5 g/ha) is listed as 50%. The “Herbicidal action against CHEAL, Found” value in the data set on CHEAL (application rate 62.5 g/ha) turned out to be 10%. Besides, the “Herbicidal action against ECHCG, Found” value in the data set on ECHCG [3] (application rate 62.5 g/ha (Example 22)) and in the data set on ECHCG [3] (setting [9]) was 85% in each case.

As for `CCc1nc2c(Cl)cc(Cl)c(-c3nn(C)c(OC(F)F)c3Br)c2o1` [I.12], the “Herbicidal action against ECHCG, Found” value in the data set with ECHCG [4] (application rate 0.49 g/ha) is recorded as 0%; with ECHCG [4] (application rate 0.98 g/ha), 0%; with ECHCG [4] (setting [10]), 0%; in the data set on ECHCG [4] (setting [11]), 0%; in the data set on ECHCG [4] (setting [7]), 50%; with ECHCG [4] (setting [8]), 50%. Besides, the “Herbicidal action against ECHCG, Found” value in the data set with ECHCG [3] (application rate 31.25 g/ha) and with ECHCG [3] (setting [9]) was 0% in each case. For the same compound, the “Herbicidal action against BRAPL, Found” value in the data set with BRAPL (setting [12]) is 50%; with BRAPL (application rate 3.91 g/ha (Example 18)), 60%; in the data set with BRAPL (setting [13]), 50%; in the data set on BRAPL (application rate 7.81 g/ha (Example 18)), 75%. Besides, the “Herbicidal action against SETVI, Found” value in the data set with SETVI (application rate 0.98 g/ha) is 40%; in the data set on SETVI (application rate 1.95 g/ha) it was 50%. Also, the “Herbicidal action against ABUTH, Found” value with ABUTH [5] (application rate 62.5 g/ha) and in the data set on ABUTH [5] (application rate 125 g/ha) was 60% each time. Also, the “Herbicidal action against BIDPI, Found” value in the data set on BIDPI [6] (application rate 62.5 g/ha) stood at 30%; with BIDPI [6] (application rate 125 g/ha) it was 30%; with BIDPI [2] (application rate 1.95 g/ha) it was 65%; with BIDPI [2] (application rate 3.91 g/ha), 65%. The “Herbicidal action against VERSS, Found” value in the data set with VERSS (application rate 0.49 g/ha) was determined as 0%; in the data set on VERSS (application rate 0.98 g/ha), 50%. Moreover, the “Herbicidal action against SORHA, Found” value in the data set with SORHA (application rate 31.25 g/ha) is 30%; in the data set with SORHA (application rate 62.5 g/ha), 40%. Moreover, the “Herbicidal action against POLPE, Found” value is given as 15% in the data set on POLPE (application rate 0.49 g/ha); 15% in the data set with POLPE (application rate 0.98 g/ha); 15% with POLPE (setting [10]); 60% with POLPE (setting [11]); 60% in the data set with POLPE (setting [7]); 65% in the data set on POLPE (setting [8]). The “Herbicidal action against GALAP, Found” value in the data set with GALAP (application rate 0.49 g/ha) and with GALAP (application rate 0.98 g/ha) was 15% throughout. In addition, the figures for the “Herbicidal action against SETFA, Found” value in the data set with SETFA (application rate 1.95 g/ha) and in the data set on SETFA (application rate 3.91 g/ha) were 50% and 65%, respectively. Moreover, the “Herbicidal action against AVEFA, Found” value in the data set on AVEFA (application rate 1.95 g/ha) is 40%; with AVEFA (application rate 1.95 g/ha (Example 16)) it was 20%; in the data set with AVEFA (setting [12]) it was 20%; in the data set on AVEFA (setting [7]) it was 20%; with AVEFA (application rate 3.91 g/ha), 40%; in the data set on AVEFA (application rate 3.91 g/ha (Example 16)) it was 30%. The results for the “Herbicidal action against AVEFA, Found” value with AVEFA (setting [13]) and in the data set on AVEFA (setting [8]) were 20% and 30%, respectively. Further, the “Damage to the crop plant corn (ZEAMX), cultivar Magister” value with crop plants (application rate 62.5 g/ha) is given as 38%; in the data set with crop plants (application rate 125 g/ha) it was 35%. For the same compound, the “Damage to the crop plant corn (ZEAMX), cultivar P3751” value in the data set on crop plants (application rate 62.5 g/ha) came out at 28%; in the data set on crop plants (application rate 125 g/ha) it was 35%.

For `CC(C)N(C(=O)COc1nnc(C(F)(F)F)s1)c1ccc(F)cc1` [flufenacet], the “Herbicidal action against VERSS, Found” value in the data set on VERSS (application rate 250 g/ha) was 0%. In the data set with MATIN (application rate 250 g/ha), the “Herbicidal action against MATIN, Found” value was 10%. Moreover, in the data set on POAAN (application rate 250 g/ha), the “Herbicidal action against POAAN, Found” value turned out to be 0%.
